# Measured values published in patent US20240174728A1, “A USE OF A POLYPEPTIDE COMPOUND IN THE PREPARATION OF DRUGS FOR PREVENTING OR TREATING INFLAMMATORY BOWEL DISEASES AND RELATED INTESTINAL FIBROSIS” (Shenzhen Turier Biotech Co., Ltd., priority 2021, published 2024).
# Starred links: 1 amine or outer side, 2 acyl side, 3 side chain; linkers in the order of their positions; H or OH if unused. Non-standard residues stand in square brackets, D forms with d. Groups on a side chain read outwards from the residue. Primed or numbered codes have the meaning given here. No end group written: not given here. *: point of attachment. C20 diacid = O=C(O)CCCCCCCCCCCCCCCCCCC(=O)*; Arachidoyl = CCCCCCCCCCCCCCCCCCCC(=O)*; γGlu = O=C(O)[C@H](CCC(=O)[*:2])N[*:1]; Iva = CC[C@](C)(N)C(=O)O; PEG2′ = not defined here; Aib = CC(C)(N)C(=O)O
# Assays:
# [1] = tested on: DSS induced acute intestinal fibrosis model of mouse; experiment: DSS induced acute intestinal fibrosis model of mouse (Example 2); assay type: in vivo, Balb/c mice; details: 3% DSS Day 1-7, compared with model group; for content of serum IL-6 (FIG. 7) / content of serum MMP-12 (FIG. 7) / collagenous fiber of colon tissues, Masson stained slice (FIG. 4A) / colon Ly-6g+ cells (neutrophile granulocyte infiltration), immunohistochemical staining (FIG. 6) / colon mucous layer α-SMA protein expression, immunohistochemical staining (FIG. 5): 120 μg/kg s.c. once/day; for content of serum IL-6 (FIG. 7) / content of serum MMP-12 (FIG. 7): 9th day serum, ##P≤0.01; for colon tissue morphology, HE stained slice (FIG. 3) / blue staining area of colon tissues, area ratio of blue collagen fibers to colon tissue in Masson staining (FIG. 4B): polypeptide 120 μg/kg s.c. or 6-TG 2 mg/kg p.o. once/day; for blue staining area of colon tissues, area ratio of blue collagen fibers to colon tissue in Masson staining (FIG. 4B): #P≤0.05
# Text: The DSS in this example is purchased from MP Biomedicals (CAS No.: 9011-18-1), and the positive control compound 6-thioguanine (6-TG) is a compound based on prior art and is purchased from Shanghai Aladdin Biochemical Technology Co., Ltd. (CAS No.: 154-42-7).
# (§1) After 7 days of adaptive feeding, 114 Balb/c mice of 6-8 weeks age (purchased from Guangdong Medical Laboratory Animal Center, with weight approx. 16-20 g) are subjected to the experiment. Then randomly put the mice into 19 groups, with 6 mice in each group. The groups are normal group, model group, 6-TG group and polypeptide compound groups 1-16.
# Model the 19 groups of mice and administer the drug to them for 8 days. In the 8 days, the normal group is given normal drinking water and is given subcutaneous injection of PBS once every day. From Day 1 to Day 7, the model group drinks 3% DSS and is given subcutaneous injection of PBS once every day. On Day 8, 3% DSS is replaced with normal drinking water and subcutaneous injection of PBS is given once. From Day 1 to Day 7, the 6-TG group drinks 3% DSS and is given 2 mg/kg 6-TG by the means of gavage once every day. On Day 8, 3% DSS is replaced with normal drinking water and 2 mg/kg 6-TG is given by the means of gavage once. From Day 1 to Day 7, the polypeptide compound groups 1-16 drink 3% DSS and are given subcutaneous injection of 120 μg/kg polypeptide compounds 1-16 once every day. On Day 8, 3% DSS is replaced with normal drinking water and subcutaneous injection of 120 μg/kg polypeptide compounds 1-16 is given once.
# In the drug administration period, the randomly selected polypeptide compound groups 3, 8, 11, 12, 13 and 14 and the normal group, model group and 6-TG group are used for testing, and the body weight, feces consistency and feces OB of the mice are recorded every day. The GraphPad Prism 8.3.0 software is used to plot the data into a diagram. Feces OB is measured by the benzidine method.
# On the 9th day, all mice are killed. The serums and colon tissues of the mice are collected. The colon and cecum of the mice are removed together. The colon length is measured. The GraphPad Prism 8.3.0 software is used to plot the data into a diagram.
# The serums of the mice from the randomly selected polypeptide compound groups 3, 8, 11, 12, 13 and 14 of the present invention and the normal group and model group are used for cytokine test.
# (§2) The colons of the mice from the randomly selected polypeptide compound groups 3, 8, 11, 12, 13 and 14 and the normal group, model group and 6-TG group in the present invention are taken. Approx. 5 mm of intestinal segment is taken from the distal end of each colon and is fixed in 10% formalin. The specimens are fixed, dehydrated, wrapped in paraffin and sliced (5 μm). Then tissue HE staining, Masson staining, α-SMA α-SMA protein immunohistochemical staining and Ly-6g protein immunohistochemical staining are completed.
# [2] = tested on: DSS induced chronic intestinal fibrosis model of mouse; experiment: DSS induced chronic intestinal fibrosis model of mouse (Example 3, three cycles); assay type: in vivo, Balb/c mice; details: 2% DSS 5 days then water 2 weeks, 3 cycles, 120 μg/kg s.c. once/day, compared with model group; for blue staining area of colon tissues, area ratio of blue collagen fibers to colon tissue in Masson staining (FIG. 11B): #P≤0.05, ##P≤0.01; for content of serum IL-6 (FIG. 13) / content of serum MMP-8 (FIG. 13): serum at end of three cycles
# Text: as §1
# In the whole process, the normal group is given normal drinking water and is given subcutaneous injection PBS once every day. The model group is first given 2% DSS for 5 days and then given normal drinking water for 2 weeks. This is 1 cycle. The cycle is done 3 times. Subcutaneous injection of PBS is given once every day. The 6-TG group is first given 2% DSS for 5 days and then given normal drinking water for 2 weeks. This is 1 cycle. The cycle is done 3 times. 2 mg/kg 6-TG is given by the means of gavage once every day. The polypeptide compound groups 1-16 are first given 2% DSS for 5 days and then given normal drinking water for 2 weeks. This is 1 cycle. The cycle is done 3 times. Subcutaneous injection of 120 μg/kg polypeptide compounds 1-16 is given once every day.
# During the administration period, the polypeptide compound groups 3, 8, 11, 12, 13 and 14 and the normal group, model group and 6-TG group are randomly selected, and the body weight, feces consistency and feces OB of the mice are recorded every day. The GraphPad Prism 8.3.0 software is used to plot the data into a diagram.
# After completion of the 3rd cycle, the mice are dissected. The serums and colon tissues of the mice are collected. The colon and cecum are removed together. The colon length is measured. The GraphPad Prism 8.3.0 software is used to plot the data into a diagram.
# The serums of the mice from the randomly selected polypeptide compound groups 3, 8, 11, 12, 13 and 14 and the normal group and model group of the present invention are used for cytokine test.
# as §2, with “normal” for “normal group, model”, “model” for “6-TG”, “Masson” for “Masson staining, α-SMA α-SMA protein immunohistochemical”, “Fibronectin” for “Ly-6g”
Substance,content of serum IL-6 (FIG. 7) [1],content of serum MMP-12 (FIG. 7) [1],"collagenous fiber of colon tissues, Masson stained slice (FIG. 4A) [1]","colon Ly-6g+ cells (neutrophile granulocyte infiltration), immunohistochemical staining (FIG. 6) [1]","colon mucous layer α-SMA protein expression, immunohistochemical staining (FIG. 5) [1]","colon tissue morphology, HE stained slice (FIG. 3) [1]","blue staining area of colon tissues, area ratio of blue collagen fibers to colon tissue in Masson staining (FIG. 4B) [1]","collagenous fiber of colon tissues, Masson stained slice (FIG. 11A) [2]","colon mucous layer Fibronectin protein expression, immunohistochemical staining (FIG. 12) [2]","colon tissue morphology, HE stained slice (FIG. 10) [2]","blue staining area of colon tissues, area ratio of blue collagen fibers to colon tissue in Masson staining (FIG. 11B) [2]",content of serum IL-6 (FIG. 13) [2],content of serum MMP-8 (FIG. 13) [2]
His-Aib-Gln-Gly-Thr-Phe-Thr-Ser-Asp-Lys(PEG2-PEG2-CO(CH2)18CH3)-Ser-Lys-Tyr-Leu-Asp-Glu-Arg-Ala-Ala-Gln-Asp-Phe-Iva-Gln-Trp-Leu-Leu-Asp-Gly-Gly-Pro-Ser-Ser-Gly-Aib-Pro-Pro-Pro-Ser-NH2 (H[Aib]QGTFTSDK([PEG2′-PEG2′-Arachidoyl])SKYLDERAAQDF[Iva]QWLLDGGPSSG[Aib]PPPS-NH2; not fully specified; printed as His-Aib-Gln-Gly-Thr-Phe-Thr-Ser-Asp-Lys(PEG2-PEG2-CO(CH2)18CH3)-Ser-Lys-Tyr-Leu-Asp-Glu-Arg-Ala-Ala-Gln-Asp-Phe-Iva-Gln-Trp-Leu-Leu-Asp-Gly-Gly-Pro-Ser-Ser-Gly-Aib-Pro-Pro-Pro-Ser-NH2) [Compound 11],clearly decreases,clearly decreases,noticeably decrease,clearly decrease,clearly decreased,become intact,noticeably decrease,noticeably decrease,clearly decreased,become intact,noticeably decrease,clearly decreases,clearly decreases
His-Aib-Gln-Gly-Thr-Phe-Thr-Ser-Asp-Lys(PEG2-PEG2-γGlu-CO(CH2)18CO2H)-Ser-Lys-Tyr-Leu-Asp-Glu-Arg-Ala-Ala-Gln-Asp-Phe-Iva-Gln-Trp-Leu-Leu-Asp-Gly-Gly-Pro-Ser-Ser-Gly-Aib-Pro-Pro-Pro-Ser-NH2 (H[Aib]QGTFTSDK([PEG2′-PEG2′-γGlu-C20 diacid])SKYLDERAAQDF[Iva]QWLLDGGPSSG[Aib]PPPS-NH2) [Compound 8],clearly decreases,clearly decreases,noticeably decrease,clearly decrease,clearly decreased,become intact,noticeably decrease,noticeably decrease,clearly decreased,become intact,noticeably decrease,clearly decreases,clearly decreases
